From patent US20260028354A1, “TETRAHYDRONAPHTHALENE DERIVATIVES AS ESTROGEN RECEPTOR DEGRADERS” (REGENT OF THE UNIVERSITY OF MICHIGAN, priority 2022, published 2026)

Experiment: Western blot analysis for "B" compounds
Type: cell-based
Details: read-out: Traditional Western Degradation Potency (DC50)
In short: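 Compound-treated cells lysed in RIPA buffer with protease inhibitors; equal protein (BCA) run on 10% SDS-PAGE, transferred to PVDF and probed with target antibodies. Band intensities quantified by densitometry and normalized to GAPDH.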

SMILES | DC50 [nM]
O=C1CCC(N2C(=O)c3cc4c(cc3C2=O)CN(CC(=O)N2CCC(n3cc(-c5ccc([C@@H]6c7ccc(O)cc7CC[C@@H]6c6ccccc6)cc5)cn3)CC2)C4)C(=O)N1 (stereo partly drawn) [Compound B58, 2-(2,6-dioxopiperidin-3-yl)-6-(2-(4-(4-(4-((1R,2S)-6-hydroxy-2-phenyl-1,2,3,4-tetrahydronaphthalen-1-yl)phenyl)-1H-pyrazol-1-yl)piperidin-1-yl)-2-oxoethyl)-6,7-dihydropyrrolo[3,4-f]isoindole-1,3(2H,5H)-dione] | > 100
O=C1CCC(N2C(=O)c3cc4c(cc3C2=O)CN(CC(=O)N2CCC3(CC2)CCN(c2ccc([C@@H]5c6ccc(O)cc6CC[C@@H]5c5ccc(F)cc5)cc2)CC3)CC4)C(=O)N1 (mixture of isomers) [Compound B193, 2-(2,6-dioxopiperidin-3-yl)-6-(2-(9-(4-((1R,2S)-2-(4-fluorophenyl)-6-hydroxy-1,2,3,4-tetrahydronaphthalen-1-yl)phenyl)-3,9-diazaspiro[5.5]undecan-3-yl)-2-oxoethyl)-5,6,7,8-tetrahydro-1H-pyrrolo[3,4-g]isoquinoline-1,3(2H)-dione] | 10 to 100
O=C1CCC(N2C(=O)c3cc4c(cc3C2=O)CN(C(=O)CN2CCC3(CC2)CCN(c2ccc([C@@H]5c6ccc(O)cc6CC[C@@H]5c5ccccc5)cc2)CC3)CC4)C(=O)N1 (mixture of isomers) [Compound B190, 2-(2,6-dioxopiperidin-3-yl)-6-(2-(9-(4-((1R,2S)-6-hydroxy-2-phenyl-1,2,3,4-tetrahydronaphthalen-1-yl)phenyl)-3,9-diazaspiro[5.5]undecan-3-yl)acetyl)-5,6,7,8-tetrahydro-1H-pyrrolo[3,4-g]isoquinoline-1,3(2H)-dione] | > 100
O=C1CCC(N2C(=O)c3cc4c(cc3C2=O)CN(CC(=O)N2CCC3(CCC(Oc5ccc([C@@H]6c7ccc(O)cc7CC[C@@H]6c6ccccc6)cc5)CC3)CC2)C4)C(=O)N1 (stereo partly drawn) [Compound B279, 2-(2,6-dioxopiperidin-3-yl)-6-(2-(9-(4-((1R,2S)-6-hydroxy-2-phenyl-1,2,3,4-tetrahydronaphthalen-1-yl)phenoxy)-3-azaspiro[5.5]undecan-3-yl)-2-oxoethyl)-6,7-dihydropyrrolo[3,4-f]isoindole-1,3(2H,5H)-dione] | > 100
CN(C1CCC(CN2Cc3cc4c(cc3C2)C(=O)N(C2CCC(=O)NC2=O)C4)CC1)C1CCN(c2ccc([C@@H]3c4ccc(O)cc4CC[C@@H]3c3ccccc3)cc2)CC1 (stereo partly drawn) [Compound B202, 3-(6-((4-((1-(4-((1R,2S)-6-hydroxy-2-phenyl-1,2,3,4-tetrahydronaphthalen-1-yl)phenyl)piperidin-4-yl)(methyl)amino)cyclohexyl)methyl)-1-oxo-3,5,6,7-tetrahydropyrrolo[3,4-f]isoindol-2(1H)-yl)piperidine-2,6-dione] | > 100
O=C1CCC(N2C(=O)c3cc4c(cc3C2=O)CN(CC2(F)CCN(C(=O)C3CN(c5ccc([C@@H]6c7ccc(O)cc7CC[C@@H]6c6ccccc6)cc5)C3)CC2)C4)C(=O)N1 (stereo partly drawn) [Compound B262, 2-(2,6-dioxopiperidin-3-yl)-6-((4-fluoro-1-(1-(4-((1R,2S)-6-hydroxy-2-phenyl-1,2,3,4-tetrahydronaphthalen-1-yl)phenyl)azetidine-3-carbonyl)piperidin-4-yl)methyl)-6,7-dihydropyrrolo[3,4-f]isoindole-1,3(2H,5H)-dione] | > 100
O=C1CCC(N2C(=O)c3cc4c(cc3C2=O)CN(C(=O)[C@H]2CC[C@H](N3CC(Nc5ccc([C@@H]6c7ccc(O)cc7CC[C@@H]6c6ccccc6)cc5)C3)CC2)C4)C(=O)N1 (stereo partly drawn) [Compound B128, 2-(2,6-dioxopiperidin-3-yl)-6-((1S,4r)-4-(3-((4-((1R,2S)-6-hydroxy-2-phenyl-1,2,3,4-tetrahydronaphthalen-1-yl)phenyl)amino)azetidin-1-yl)cyclohexane-1-carbonyl)-6,7-dihydropyrrolo[3,4-f]isoindole-1,3(2H,5H)-dione] | 10 to 100
